Literature values as cited in patent publication US8617560B2, “Peptides for vaccination against human CMV” (priority 1999, dated 2013).

Test system: cytomegaloviruses
Details: background statement, Lutz Schneider 1991

O=C(O)P(=O)(O)O [Foscarnet]
effect on cytomegaloviruses: virostatic effect
